The source made the active and inactive calls. No rule for the calls is given here.

The subject of the test is Broad 7084-01 inhibitor HTS, set 2. The test can be described thus: single-concentration hits, screen 7084 set 2 (AID 977613).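 Also: host cells are infected with parasite promastigotes that become internalized.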

`CC(=O)N1CC[C@H]2[C@@H]1c1cc(-c3ccc(C#N)cc3)ccc1N(C)[C@H]2CO`: the active concentration is > 10 µM (inactive).

For the compound `COCC(=O)N1[C@H](CO)[C@H](c2ccccc2-c2ccc(C)cc2)[C@@H]1C#N`, the active concentration was > 10 µM (inactive).

On to `Cc1noc(C)c1NC(=O)Nc1ccc2c(c1)C(=O)N(C)[C@H]1CC[C@H](CC(=O)NCc3ccc(Cl)cc3)O[C@@H]1CO2`, for which the active concentration was > 10 µM (inactive).

Consider `O=C(C[C@@H]1CC[C@H]2[C@@H](COC[C@H](O)CN2Cc2ccc3c(c2)OCO3)O1)Nc1ccccc1`, for which the active concentration is > 10 µM (inactive).

In the case of `O=C(C[C@H]1CC[C@H]2[C@@H](COC[C@H](O)CN2C(=O)Nc2ccc(Cl)c(Cl)c2)O1)NCc1ccc(Cl)cc1`, the active concentration is > 10 µM (inactive).

Regarding `N#C[C@@H]1[C@H](c2ccccc2-c2ccccc2)[C@H](CO)N1C(=O)Cc1ccncc1`, the active concentration is > 10 µM (inactive).

As for `O=C(C[C@@H]1CC[C@H]2[C@@H](COC[C@@H](O)CN2C(=O)Nc2cc(Cl)cc(Cl)c2)O1)NCC1CCCCC1`, the active concentration is > 10 µM (inactive).

Regarding `O=C(Nc1ccc(F)cc1)N1CC(=O)N2[C@H](C1)[C@H](c1ccc(C#Cc3cccnc3)cc1)[C@@H]2CO`, the active concentration was > 10 µM (inactive).

For the compound `O=C(NC1Cc2ccccc2C1)[C@H]1N[C@H]2c3cccc(=O)n3C[C@H]2[C@@H]1CO`, the active concentration is > 10 µM (inactive).

For the compound `COc1ccc2c3c([nH]c2c1)[C@@H](CO)NCC31CN(Cc2cc(F)ccc2F)C1`, the active concentration is > 10 µM (inactive).

Consider `O=C1CNC[C@@H]2[C@H](c3ccc(-c4ccccc4F)cc3)[C@@H](CO)N12`, for which the active concentration is > 10 µM (inactive).

For the compound `O=C(C[C@H]1CC[C@H]2[C@@H](COC[C@H](O)CN2C(=O)Cc2ccccc2)O1)NC1CCCC1`, the active concentration is > 10 µM (inactive).

In the case of `OC[C@@H]1[C@@H](c2ccccc2)C2(CN(Cc3nccs3)C2)N1CC1CCOCC1`, the active concentration was > 10 µM (inactive).

Consider `CCC(=O)N1C[C@@H]2[C@H](c3ccccc31)[C@H](CO)N2C(=O)CC`, for which the active concentration is > 10 µM (inactive).

On to `CN(C)CC(=O)N1CC2(C1)[C@H](c1ccccc1)[C@@H](CO)N2S(C)(=O)=O`, for which the active concentration was > 10 µM (inactive).

Consider `C/C=C/c1ccccc1[C@@H]1[C@@H](CO)N(C(=O)CN2CCOCC2)[C@H]1C#N`, for which the active concentration was > 10 µM (inactive).

As to `O=C(NC1Cc2ccccc2C1)[C@H]1[C@H](CO)[C@H]2Cn3c(cccc3=O)[C@@H]1N2C(=O)CC1CC1`, the active concentration is > 10 µM (inactive).

As to `O=C(C[C@@H]1CC[C@H]2[C@@H](COC[C@H](O)CN2Cc2ccc(Cl)cc2)O1)NCc1ccccc1Cl`, the active concentration is > 10 µM (inactive).

With `N#C[C@H]1[C@@H](c2ccccc2-c2cccc(F)c2)[C@@H](CO)N1C(=O)CN1CCOCC1`, the active concentration was > 10 µM (inactive).

Take `O=C(CN1CCOCC1)N1CC(=O)N2[C@H](CO)[C@H](c3ccc(-c4cccc(F)c4)cc3)[C@@H]2C1`: the active concentration was > 10 µM (inactive).

Regarding `OC[C@H]1[C@H]2c3ccccc3NC[C@H]2N1Cc1cccnc1`, the active concentration was > 10 µM (inactive).

For `CN(C)C(=O)[C@@H]1[C@@H](CO)[C@@H]2Cn3c(cccc3=O)[C@@H]2N1C(=O)C1CCC1`, the active concentration was > 10 µM (inactive).

As to `O=C(C[C@@H]1CC[C@@H]2[C@H](COC[C@H](O)CN2Cc2ccccc2)O1)NCCc1ccccc1`, the active concentration is > 10 µM (inactive).

For the compound `CCN1CC(=O)N2[C@H](CO)[C@H](c3ccc(Br)cc3)[C@@H]2C1`, the active concentration is > 10 µM (inactive).

With `N#C[C@@H]1[C@@H](c2ccccc2-c2cccc(F)c2)[C@@H](CO)N1C(=O)CN1CCOCC1`, the active concentration is > 10 µM (inactive).

Consider `CCCC#Cc1ccc([C@@H]2[C@H]3CN(C(=O)CN4CCOCC4)CC(=O)N3[C@H]2CO)cc1`, for which the active concentration is > 10 µM (inactive).

In the case of `CCc1csc(N2[C@H](C#N)[C@H](c3ccccc3-c3ccc(F)cc3)[C@H]2CO)n1`, the active concentration is > 10 µM (inactive).

`CN(C)CC(=O)N1CCCCN2[C@H](C1)[C@H](c1ccc(/C=C/c3ccccc3)cc1)[C@@H]2CO`: the active concentration was > 10 µM (inactive).

Consider `C/C=C/c1ccc([C@@H]2[C@@H](CO)N3C(=O)CN(C(=O)c4ccncc4)C[C@@H]23)cc1`, for which the active concentration was > 10 µM (inactive).

Turning to `N#C[C@@H]1[C@H](c2ccccc2C2=CCCCC2)[C@H](CO)N1C(=O)Nc1ccccc1F`, the active concentration is > 10 µM (inactive).

`CCCNC(=O)N1CC2(CN(C(=O)Cc3cccnc3)C2)c2c([nH]c3cc(OC)ccc23)[C@H]1CO`: the active concentration was > 10 µM (inactive).

In the case of `CN1[C@H](CO)[C@H]2c3ccccc3N(C(=O)Nc3ccccc3F)C[C@H]21`, the active concentration is > 10 µM (inactive).

In the case of `COc1cccc(NC(=O)N2C[C@@H](O)COC[C@H]3O[C@@H](CC(=O)NC4CCC4)CC[C@@H]32)c1`, the active concentration was > 10 µM (inactive).

Take `O=C(c1ccccc1)N1CC(=O)N2[C@H](CO)[C@@H](c3ccc(-c4ccccc4)cc3)[C@H]2C1`: the active concentration was > 10 µM (inactive).

With `O=C(NC1CCCCC1)[C@@H]1N[C@@H]2c3ccc(-c4cccc(F)c4)c(=O)n3C[C@@H]2[C@H]1CO`, the active concentration is > 10 µM (inactive).

Take `CCS(=O)(=O)N1CC2(C1)[C@@H](c1ccccc1)[C@@H](CO)N2C(=O)c1ccccc1`: the active concentration is > 10 µM (inactive).

For the compound `CN1C(=O)c2cc(NS(C)(=O)=O)ccc2OC[C@@H]2O[C@H](CC(=O)NC3CCCCC3)CC[C@H]21`, the active concentration is > 10 µM (inactive).

Take `CN1C(=O)c2cc(NC(=O)c3ccccc3Cl)ccc2OC[C@H]2O[C@H](CC(=O)NCC(F)(F)F)CC[C@H]21`: the active concentration was > 10 µM (inactive).

Take `COc1ccc(-c2ccccc2[C@@H]2[C@@H](C#N)N(C(=O)NC3CCCCC3)[C@H]2CO)cc1`: the active concentration is > 10 µM (inactive).

`COc1cccc(CN2CC3(CN(C)C3)c3c([nH]c4cc(OC)ccc34)[C@H]2CO)c1`: the active concentration was > 10 µM (inactive).

On to `N#C[C@@H]1[C@H](c2ccccc2C2=CCCCC2)[C@H](CO)N1C(=O)c1cccc(F)c1`, for which the active concentration is > 10 µM (inactive).

Consider `O=C(CC1CC1)N1CC(=O)N2[C@@H](CO)[C@H](c3ccc(C#Cc4cccc(F)c4)cc3)[C@@H]2C1`, for which the active concentration was > 10 µM (inactive).

Take `COc1ccccc1NC(=O)N1C[C@@H]2[C@H](c3ccccc31)[C@@H](CO)N2C(C)=O`: the active concentration was > 10 µM (inactive).

Consider `C/C=C/c1ccccc1[C@H]1[C@@H](CO)N(C(=O)Nc2cccc(F)c2)[C@H]1C#N`, for which the active concentration is > 10 µM (inactive).

Regarding `COc1ccc(NC(=O)N2CC(=O)N3[C@H](CO)[C@H](c4ccc(Br)cc4)[C@H]3C2)cc1`, the active concentration is > 10 µM (inactive).

Turning to `O=C(CC(F)(F)F)N1C[C@@H]2[C@H](c3ccccc31)[C@H](CO)N2C(=O)C1CC1`, the active concentration is > 10 µM (inactive).

Regarding `O=C(C[C@@H]1CC[C@@H]2[C@H](COC[C@@H](O)CN2S(=O)(=O)c2cccc(Cl)c2)O1)Nc1ccc(-c2ccccc2)cc1`, the active concentration is > 10 µM (inactive).

For the compound `COCC#Cc1ccc([C@@H]2[C@H](CO)N3C(=O)CN(C(=O)Nc4ccccc4F)C[C@@H]23)cc1`, the active concentration was > 10 µM (inactive).

On to `C/C=C/c1ccccc1[C@H]1[C@@H](C#N)N(C(=O)NC2CCCCC2)[C@H]1CO`, for which the active concentration is > 10 µM (inactive).

Turning to `CN1C(=O)c2cc(NC(=O)C3CCOCC3)ccc2OC[C@H]2O[C@@H](CC(=O)NCC3CCCCC3)CC[C@H]21`, the active concentration was > 10 µM (inactive).

For the compound `Cc1ccccc1-c1ccccc1[C@@H]1[C@@H](C#N)N(C(=O)c2ccccc2)[C@H]1CO`, the active concentration is > 10 µM (inactive).

For the compound `O=C(C[C@H]1CC[C@@H]2[C@H](COC[C@@H](O)CN2C(=O)C2CC2)O1)NCc1ccncc1`, the active concentration is > 10 µM (inactive).

Consider `CC(=O)N1CC2(C1)[C@H](c1ccc(-c3cccc(C#N)c3)cc1)[C@H](CO)N2CCC(F)(F)F`, for which the active concentration was > 10 µM (inactive).

In the case of `N#C[C@H]1[C@H](c2ccccc2-c2ccccc2)[C@@H](CO)N1C(=O)Cc1ccncc1`, the active concentration is > 10 µM (inactive).

As to `CC(=O)N1CC[C@@H]2[C@H]1c1cc(-c3ccc(F)cc3)ccc1N[C@@H]2CO`, the active concentration is > 10 µM (inactive).

As to `O=C(c1ccc2c(c1)OCO2)N1C[C@@H]2[C@H](c3ccccc31)[C@H](CO)N2C(=O)CC1CC1`, the active concentration was > 10 µM (inactive).

Regarding `COc1cccc(NC(=O)N2C[C@@H](O)COC[C@@H]3O[C@@H](CC(=O)NC4CCC4)CC[C@H]32)c1`, the active concentration is > 10 µM (inactive).

For `CCS(=O)(=O)N1CC(=O)N2[C@H](CO)[C@@H](c3ccc(C#CC4CCCCC4)cc3)[C@H]2C1`, the active concentration was > 10 µM (inactive).

`CCCC(=O)N1CCC2(CC1)CN(Cc1ccc(Cl)cc1)[C@H](CO)c1[nH]c3cc(OC)ccc3c12`: the active concentration was > 10 µM (inactive).

In the case of `C/C=C/c1ccc([C@@H]2[C@@H](CO)N3CCCCN(S(=O)(=O)c4ccc(OC)cc4)C[C@H]23)cc1`, the active concentration was > 10 µM (inactive).

Consider `COCC(=O)N1[C@H](CO)[C@H](c2ccccc2-c2ccccc2F)[C@@H]1C#N`, for which the active concentration is > 10 µM (inactive).

With `O=C(C[C@@H]1CC[C@@H]2[C@H](COC[C@H](O)CN2C(=O)c2ccccc2F)O1)NCc1ccccc1`, the active concentration is > 10 µM (inactive).

For the compound `O=C(CC1CC1)N1CC(=O)N2[C@H](CO)[C@@H](c3ccc(/C=C/c4ccccc4)cc3)[C@@H]2C1`, the active concentration is > 10 µM (inactive).

With `O=C(C[C@@H]1CC[C@H]2[C@@H](COC[C@@H](O)CN2CC2CC2)O1)NCc1ccc(Cl)cc1`, the active concentration was > 10 µM (inactive).

Regarding `N#Cc1cccc(-c2ccc3c(c2)[C@@H]2[C@@H](CCN2S(=O)(=O)c2ccc(F)cc2)[C@H](CO)N3)c1`, the active concentration is > 10 µM (inactive).

Consider `CCC(=O)N1CC(=O)N2[C@H](C1)[C@@H](c1ccc(-c3ccc(C#N)cc3)cc1)[C@@H]2CO`, for which the active concentration is > 10 µM (inactive).

Source of the values: PubChem BioAssay AID977613 (Broad Institute, 2014).
